Data published in EP4656722A1, “OR2AT4 RECEPTOR AGONIST APTAMERS AND USES THEREOF” (Fundacion Instituto De Investigacion Sanitaria Fundacion …, priority 2024, dated 2025).

How the values were obtained:
OR2AT4 [1] = biological target: T1, OR2AT4 (Homo sapiens, UniProt A6NND4); design: host or cells: keratinocytes; conditions: cited from earlier work
T1 sequence (A6NND4 1-320): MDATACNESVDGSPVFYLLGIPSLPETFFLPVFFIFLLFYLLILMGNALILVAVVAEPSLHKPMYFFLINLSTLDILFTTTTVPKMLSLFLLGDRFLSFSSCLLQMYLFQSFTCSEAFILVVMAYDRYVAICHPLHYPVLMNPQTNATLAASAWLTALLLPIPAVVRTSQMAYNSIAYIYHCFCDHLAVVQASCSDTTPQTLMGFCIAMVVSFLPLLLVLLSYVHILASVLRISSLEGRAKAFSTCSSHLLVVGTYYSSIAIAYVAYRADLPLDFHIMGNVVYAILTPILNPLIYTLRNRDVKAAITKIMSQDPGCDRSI

[2] = tested on: HaCaT-OR2AT4-Myc-DDK transfectants; assay: XTT cell proliferation assay in HaCaT-OR2AT4-Myc-DDK transfectants; assay type: cell-based, human; conditions: 250 µM, days 1, 3 and 5, compared to vehicle (Control)
OR2AT4 [3] = biological target: T1, OR2AT4; assay: CRE-luciferase reporter activity assay in 293 cells stably expressing OR2AT4; assay type: cell-based; design: GeneScript (pcDNA3.1-Hygro for GNAL); conditions: synthetic odorants 400 µM, 4 hours, clone 293-OR2AT4-Golf-clone#2
Source text: • Figure 1. Generation of a 293 clone that stably expresses the OR2AT4 receptor. The 293-OR2AT4-Golf transfectant was generated by means of calcium phosphate cotransfection into 293 cells of the expression plasmids for the OR2AT4 receptor (NM_001005285, pCMV6-Entry-OR2AT4-Neo; Origene) and for the Golf subunit of G proteins, generated by means of subcloning the hGNAL gene (NM_001261443.1) into the expression plasmid (pcDNA3.1-Hygro, GeneScript). Stable transfectants were selected on medium containing neomycin and hygromycin B, and clone 293-OR2AT4-Golf-clone#2 was obtained by limiting dilution. […] Replicates of the reactions for the target and housekeeping genes, which were performed simultaneously for each template cDNA analysed, were included in triplicate. […] Data normalisation was calculated by means of the formula [Luc/Renilla(N)-Luc/Renilla(lowest)]/[Luc/Renilla(highest)-Luc/Renilla(lowest)]. […] Means were calculated using three replicates per condition, n=3. […] Statistical significance was determined using Student's t test (*p<0.05 and **p<0.001, with respect to control). […] The anti proliferative effect of the aptamers on the K562 cell line was evaluated in a colorimetric proliferation assay based on the reduction of tetrazolium salts (XTT). […]

human hair follicles = conditions: ex vivo; cited from earlier work
telogen effluvium = conditions: solution containing 1% Sandalore applied for 24 weeks, 60 patients with telogen effluvium; cited from earlier work

Compound | activation of the OR2AT4 receptor expressed in keratinocytes (OR2AT4 [1]) | cell proliferation [2] | cAMP production (normalised luciferase activity) (OR2AT4 [3]) | apoptosis (human hair follicles) | hair growth (human hair follicles) | production of the growth factor IGF-1 (human hair follicles) | degree of hair loss, hair volume, terminal/vellous hair ratio, anagen/catagen-telogen ratio, patient's self-esteem (telogen effluvium)
CC1=CCC(CCC(C)CO)C1(C)C (stereo not shown) [Brahmanol, sandal cyclopentane] | capable of activating the OR2AT4 receptor | significant proliferative response | activated cAMP production |  |  |  | 
CC1=CCC(CCC(C)C(C)O)C1(C)C (stereo not shown) [Sandalore, sandal pentanol] | capable of activating the OR2AT4 receptor | significant proliferative response | activated cAMP production | reducing apoptosis | promotes hair growth | increasing the production | improvement
